Tests used:
Toll-like receptor 7 = biological target: T1, Toll-like receptor 7 (Mus musculus, UniProt P58681); experiment: Antagonist activity at TLR7 in mouse whole blood cells assessed as inhibition of gardiquimod induced IL-6 production by ELISA; type: cell-based
T1 sequence (P58681 whole entry): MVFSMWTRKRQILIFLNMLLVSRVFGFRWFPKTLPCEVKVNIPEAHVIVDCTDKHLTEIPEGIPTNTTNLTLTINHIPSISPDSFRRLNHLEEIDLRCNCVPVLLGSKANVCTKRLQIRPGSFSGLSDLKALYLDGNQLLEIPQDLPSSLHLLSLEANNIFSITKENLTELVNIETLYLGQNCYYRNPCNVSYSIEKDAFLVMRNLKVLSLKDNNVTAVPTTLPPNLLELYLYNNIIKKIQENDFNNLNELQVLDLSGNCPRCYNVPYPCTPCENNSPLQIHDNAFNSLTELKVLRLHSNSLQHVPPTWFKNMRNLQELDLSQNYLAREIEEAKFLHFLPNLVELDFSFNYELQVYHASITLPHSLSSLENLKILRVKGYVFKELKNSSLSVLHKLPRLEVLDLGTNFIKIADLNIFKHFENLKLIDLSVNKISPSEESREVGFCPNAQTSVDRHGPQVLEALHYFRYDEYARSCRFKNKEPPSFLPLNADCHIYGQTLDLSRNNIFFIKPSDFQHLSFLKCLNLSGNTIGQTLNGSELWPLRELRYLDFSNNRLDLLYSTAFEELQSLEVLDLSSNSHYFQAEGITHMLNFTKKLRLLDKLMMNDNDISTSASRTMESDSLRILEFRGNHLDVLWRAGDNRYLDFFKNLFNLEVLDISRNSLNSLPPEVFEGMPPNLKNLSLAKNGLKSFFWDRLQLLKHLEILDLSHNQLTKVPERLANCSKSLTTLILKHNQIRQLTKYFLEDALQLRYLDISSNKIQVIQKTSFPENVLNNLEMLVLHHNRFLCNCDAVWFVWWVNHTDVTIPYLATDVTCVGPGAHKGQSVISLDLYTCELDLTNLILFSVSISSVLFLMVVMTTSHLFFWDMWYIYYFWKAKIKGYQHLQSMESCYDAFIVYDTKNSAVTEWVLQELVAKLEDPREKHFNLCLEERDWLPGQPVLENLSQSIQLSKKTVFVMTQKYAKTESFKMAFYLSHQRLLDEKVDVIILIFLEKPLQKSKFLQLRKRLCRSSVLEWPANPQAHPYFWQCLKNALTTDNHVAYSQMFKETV

[1] = Cmax in mouse at 15 mg/kg, po; type: ADME, organism-based; set-up: dose 15 mg/kg, route oral; conditions: in vivo
[2] = Terminal half life in mouse at 3 mg/kg, iv; type: ADME, organism-based; conditions: in vivo, read-out: beta t1/2 (converted)
Toll-like receptor 9 = biological target: T2, Toll-like receptor 9 (Mus musculus, UniProt Q9EQU3)
T2 sequence (Q9EQU3 whole entry): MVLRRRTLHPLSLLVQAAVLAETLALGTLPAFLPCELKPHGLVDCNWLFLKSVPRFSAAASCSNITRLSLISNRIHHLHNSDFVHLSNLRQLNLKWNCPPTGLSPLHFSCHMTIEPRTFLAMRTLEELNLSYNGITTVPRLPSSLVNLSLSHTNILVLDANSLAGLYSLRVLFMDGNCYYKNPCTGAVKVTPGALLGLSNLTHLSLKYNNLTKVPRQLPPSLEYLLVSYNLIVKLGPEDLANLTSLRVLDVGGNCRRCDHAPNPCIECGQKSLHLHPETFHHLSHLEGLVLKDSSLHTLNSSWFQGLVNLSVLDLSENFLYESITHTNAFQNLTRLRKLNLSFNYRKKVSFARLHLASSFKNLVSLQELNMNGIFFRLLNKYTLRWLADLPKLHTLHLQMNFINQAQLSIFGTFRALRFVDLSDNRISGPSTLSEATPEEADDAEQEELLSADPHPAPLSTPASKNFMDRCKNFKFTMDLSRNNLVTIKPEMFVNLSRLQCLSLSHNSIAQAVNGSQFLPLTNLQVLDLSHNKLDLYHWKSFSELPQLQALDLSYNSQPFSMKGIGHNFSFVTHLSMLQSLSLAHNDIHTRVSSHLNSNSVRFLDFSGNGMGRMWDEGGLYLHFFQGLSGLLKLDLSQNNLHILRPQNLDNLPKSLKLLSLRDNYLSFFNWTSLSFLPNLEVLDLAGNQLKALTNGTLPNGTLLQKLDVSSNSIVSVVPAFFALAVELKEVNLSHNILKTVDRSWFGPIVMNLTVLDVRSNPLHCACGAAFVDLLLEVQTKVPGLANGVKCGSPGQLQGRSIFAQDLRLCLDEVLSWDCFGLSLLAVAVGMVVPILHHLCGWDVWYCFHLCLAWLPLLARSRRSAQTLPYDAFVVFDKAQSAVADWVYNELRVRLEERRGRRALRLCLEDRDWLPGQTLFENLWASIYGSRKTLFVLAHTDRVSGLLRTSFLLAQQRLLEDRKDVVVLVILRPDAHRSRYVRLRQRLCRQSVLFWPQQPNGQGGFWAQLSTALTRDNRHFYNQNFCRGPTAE
Description: In vivo antagonist activity at TLR9 in po dosed C57BL/6 mouse assessed as reduction of CpG-ODN-1585-induced IL-6 production pretreated for 30 mins followed by CpG-ODN-1585-stimulation and measured after 120 mins by ELISA

Compound: CNCCN1CCC(c2ccc3[nH]c(-c4ccc(OC)c(OC)c4)c(C(C)C)c3c2)CC1
- IC50 (Toll-like receptor 7): 43 nM
- Cmax [1]: 1630 nM
- half-life [2]: 32 h
- EC50 (Toll-like receptor 9): 25 nM

— ChEMBL document CHEMBL4619828, “Discovery of Potent and Orally Bioavailable Small Molecule Antagonists of Toll-like Receptors 7/8/9 (TLR7/8/9)” (ACS Med Chem Lett, 2020)
